Results on nine molecules are retold here after patent US20110002989A1, “METHODS, DOSAGE FORMS AND KITS FOR ADMINISTERING ZIPRASIDONE WITHOUT FOOD” (Pfizer Inc., priority 2008, published 2011).

Data set [1] is described as follows: In vitro dissolution test in 0.01 N HCl simulated gastric buffer pH 2.0 (MDC and AUC90). Format: physicochemical. The settings on record: for AUC90 / MDC: 200 μgA/mL if all dissolved, pH 2.0, 37° C., 100 rpm; for AUC Enhancement Relative to Control 1: AUC90, pH 2.0 simulated gastric buffer; for AUC Enhancement Relative to Control 1 / MDC Enhancement Relative to Control 1: 37° C.; for MDC Enhancement Relative to Control 1: pH 2.0 simulated gastric buffer. How it is done:
An in vitro dissolution test may be performed by adding the test form of ziprasidone to a dissolution test media consisting of a simulated gastric buffer (GB) solution of 0.01 N HCl at pH 2.0.
In such a test, two end-points are assessed: 1) the maximum dissolved drug concentration (MDC) of ziprasidone in the test media, and 2) the area under the concentration versus time curve of dissolved ziprasidone in the in vitro dissolution test. More specifically, in the in vitro use environment, the concentration of dissolved ziprasidone over any 90-minute period from about 0 to about 270 minutes following introduction to the use environment is measured.
An in vitro test to evaluate enhanced ziprasidone dissolution rate in aqueous solution can be conducted by adding with agitation a sufficient quantity of test ziprasidone form to the test medium, such that if all the ziprasidone dissolved, the theoretical concentration of ziprasidone would exceed the equilibrium concentration provided by the control ziprasidone form by a factor of at least 2, and preferably by a factor of at least 10. Performing the test at this concentration will ensure that the MDC of ziprasidone can be determined.
Then, the concentration of dissolved ziprasidone is measured as a function of time by sampling the test medium and plotting ziprasidone concentration in the test medium versus time so that the dissolution rate can be ascertained. The MDC is taken to be the maximum value of dissolved ziprasidone measured over the duration of the test.
During such a test, the concentration of “dissolved drug” should be measured using standard analytical techniques, including high-performance liquid chromatography (HPLC), ultraviolet (UV) absorption, or other standard methods known in the art. When using solution techniques, such as HPLC, the test solution should be either filtered or centrifuged, to avoid large drug particulates that would give an erroneous determination.
“Dissolved drug” is typically taken as that material that either passes a 0.45 μm syringe filter or, alternatively, the material that remains in the supernatant following centrifugation. Filtration can be conducted using a 13 mm, 0.45 μm polyvinylidine difluoride syringe filter sold by Scientific Resources under the trademark TITAN®. Centrifugation is typically carried out in a polypropylene microcentrifuge tube by centrifuging at 13,000 G for 60 seconds. Other similar filtration or centrifugation methods can be employed and useful results obtained. For example, using other types of microfilters may yield values somewhat higher or lower (±10-40%) than that obtained with the filter specified above but will still allow identification of preferred dissolution rate-improved forms.
A specific example of a dissolution test for ascertaining solubility and dissolution rate of a test ziprasidone form is as follows: First, a sufficient amount of the test form is placed into a dissolution flask such that the concentration of ziprasidone would have been 200 μgA/mL if all the ziprasidone dissolved. A simulated GB solution at pH 2.0 is then added and the mixture stirred at a stirred speed of 100 rpm. The test is performed at 37° C. Using UV probes, the concentration of dissolved ziprasidone is then measured over time for at least 90 minutes. The formulation is considered to be a solubility-improved form or dissolution rate-improved form of ziprasidone if it provides at least one of (1) a MDC that is greater than that of the control, (2) an AUC90 that is greater than that of the control, or (3) both (1) and (2). The control formulation, as discussed above, is crystalline ziprasidone HCl monohydrate as is used in the GEODON/ZELDOX™ commercial capsules.
The following test was used to evaluate various ziprasidone formulations. […]

The conditions of data set [2]: depending on the dose, healthy volunteers; cited from earlier work.

Structures can show the parent of a compound that is named as a salt.

As to `O=C1Cc2cc(CCN3CCN(c4nsc5ccccc45)CC3)c(Cl)cc2N1` [Control 1, ziprasidone hydrochloride monohydrate, reference compound], in data set [1] (hydrochloride monohydrate), the AUC90 is 1.6 mg·min/mL and the MDC is on record as 25 μgA/mL.

As to `O=C1Cc2cc(CCN3CCN(c4nsc5ccccc45)CC3)c(Cl)cc2N1` [Example 6, ziprasidone mesylate], in data set [1], the AUC90 was 9.0 mg·min/mL, the MDC is recorded as 140 μgA/mL, the “AUC Enhancement Relative to Control 1” value is reported as 5.5 fold and the “MDC Enhancement Relative to Control 1” value is 5.5 fold.

`O=C1Cc2cc(CCN3CCN(c4nsc5ccccc45)CC3)c(Cl)cc2N1` [Example 7, ziprasidone free base]: in data set [1], the AUC90 was 7.0 mg·min/mL, the MDC is reported as 85 μgA/mL, the “AUC Enhancement Relative to Control 1” value is recorded as 4.3 fold and the “MDC Enhancement Relative to Control 1” value is 3.3 fold.

Regarding `NC(CC(=O)O)C(=O)O.O=C1Cc2cc(CCN3CCN(c4nsc5ccccc45)CC3)c(Cl)cc2N1` [Example 10, ziprasidone aspartate], in data set [1], the AUC90 was 6.1 mg·min/mL, the MDC was 76 μgA/mL, the “AUC Enhancement Relative to Control 1” value is listed as 3.7 fold and the “MDC Enhancement Relative to Control 1” value is 3.0 fold.

On to `O=C1Cc2cc(CCN3CCN(c4nsc5ccccc45)CC3)c(Cl)cc2N1` [Ziprasidone, 5-[2-[4-(1,2-benzisothiazol-3-yl)-1-piperazinyl]ethyl]-6-chloro-1,3-dihydro-2H-indol-2-one], for which, in data set [2], the “enhanced absorption when given with food” value is on record as “approximately 100%”.

As to ziprasidone citrate [Example 11], in data set [1], the AUC90 was 2.4 mg·min/mL, the MDC is reported as 33 μgA/mL, the “AUC Enhancement Relative to Control 1” value is given as 1.5 fold and the “MDC Enhancement Relative to Control 1” value is recorded as 1.3 fold.

ziprasidone succinate [Example 12]: in data set [1], the AUC90 was 4.9 mg·min/mL, the MDC is recorded as 59 μgA/mL, the “AUC Enhancement Relative to Control 1” value is given as 3.0 fold and the “MDC Enhancement Relative to Control 1” value is 2.3 fold.

Regarding ziprasidone tartrate [Example 9], in data set [1], the AUC90 is 6.1 mg·min/mL, the MDC was 91 μgA/mL, the “AUC Enhancement Relative to Control 1” value was 3.7 fold and the “MDC Enhancement Relative to Control 1” value is 3.6 fold.

As to ziprasidone tosylate [Example 8], in data set [1], the AUC90 was 3.8 mg·min/mL, the MDC is 54 μgA/mL, the “AUC Enhancement Relative to Control 1” value is 2.3 fold and the “MDC Enhancement Relative to Control 1” value is listed as 2.1 fold.
